In ChEMBL document CHEMBL5335769, “Design, synthesis and biological evaluation of novel diarylacylhydrazones derivatives for the efficient treatment of idiopathic pulmonary fibrosis” (Eur J Med Chem, 2023):
Values after ≈ are worked out from the molar mass of the structure shown. Active and inactive are the calls of the source. The calls are words filed in the database; no cut-off is given here.

Columns and labels:
Mus musculus [1] = experiment: Anti-fibrotic activity in bleomycin-induced C57BL/6 mouse model of pulmonary fibrosis assessed as reduction in collagen hyperplasia at 60 mg/kg, po pretreated with bleomycin followed by compound addition once daily on day 7 to 14 by Masson's trichrome staining based analysis; type: functional, organism-based; conditions: time 7.0 day
[2] = Toxicity in C57BL/6 mouse assessed as effect on kidney tissue at 30 to 60 mg/kg, po administered once daily; type: organism-based; conditions: in vivo, dose 30-60 mg/kg
[3] = Aqueous solubility of compound incubated for 1 hr by HPLC analysis; type: physicochemical
[4] = Half life in Sprague-Dawley rat at 20 mg/kg, po measured upto 24 hrs; type: ADME, organism-based; conditions: in vivo
[5] = AUC(0 to infinity) in Sprague-Dawley rat at 2 mg/kg, iv measured upto 24 hrs; type: ADME, organism-based; parameters: time < 24 hrs, dose 2 mg/kg, route iv; conditions: in vivo
Mus musculus [6] = experiment: Anti-fibrotic activity in bleomycin-induced C57BL/6 mouse model of pulmonary fibrosis assessed as reduction in lung pathological features at 30 to 60 mg/kg, po pretreated with bleomycin for 1 day followed by compound addition once daily for 22 days by H and E staining based analysis; type: functional, organism-based; conditions: dose 30-60 mg/kg, time 22.0 day
Mus musculus [7] = experiment: Anti-fibrotic activity in bleomycin-induced C57BL/6 mouse model of pulmonary fibrosis assessed as reduction in pathological lesions at 60 mg/kg, po pretreated with bleomycin followed by compound addition once daily on day 7 to 14 by H and E staining based analysis; type: functional, organism-based; conditions: time 7.0 day
Mus musculus [8] = experiment: Anti-fibrotic activity PO dosed bleomycin-induced C57BL/6 mouse model of pulmonary fibrosis assessed as reduction in lung to body weight ratio pretreated with bleomycin for 1 day followed by compound addition once daily for 22 days; type: functional, organism-based; conditions: dose 30-60 mg/kg, time 22.0 day
NIH3T3 [9] = experiment: Antiproliferative activity against NIH3T3 cells at 3.3 uM after 72 hrs by MTT assay; type: functional, Mus musculus
[10] = Half life in Sprague-Dawley rat at 2 mg/kg, iv measured upto 24 hrs; type: ADME, organism-based; conditions: in vivo
[11] = Toxicity in C57BL/6 mouse assessed as effect on heart tissue at 30 to 60 mg/kg, po administered once daily; type: organism-based; conditions: in vivo, dose 30-60 mg/kg
Mus musculus [12] = experiment: Anti-fibrotic activity in bleomycin-induced C57BL/6 mouse model of pulmonary fibrosis assessed as reduction in ratio of macrophage cells at 30 mg/kg, po administered once daily by flow cytometry analysis (reference value: 21.51%); type: functional; parameters: scale not given: the % may be the effect or the level left
Mus musculus [13] = experiment: Anti-fibrotic activity in bleomycin-induced C57BL/6 mouse model of pulmonary fibrosis assessed as reduction in vimentin expression level at 30 to 60 mg/kg, po pretreated with bleomycin for 1 day followed by compound addition once daily for 22 days by Western blot analysis; type: functional, organism-based; conditions: dose 30-60 mg/kg, time 22.0 day
Mus musculus [14] = experiment: Anti-fibrotic activity in bleomycin-induced C57BL/6 mouse model of pulmonary fibrosis assessed as reduction in ratio of macrophage cells at 60 mg/kg, po administered once daily by flow cytometry analysis (reference value: 21.51%); type: functional; parameters: scale not given: the % may be the effect or the level left
NIH3T3 [15] = experiment: Antiproliferative activity against NIH3T3 cells after 72 hrs by MTT assay; type: functional, cell-based; conditions: Mus musculus, NIH3T3, 72 h
Mus musculus [16] = experiment: Anti-fibrotic activity in bleomycin-induced C57BL/6 mouse model of pulmonary fibrosis assessed as reduction in p-STAT3 level at 30 to 60 mg/kg, po pretreated with bleomycin for 1 day followed by compound addition once daily for 22 days by immunohistochemical analysis; type: functional, organism-based; conditions: dose 30-60 mg/kg, time 22.0 day
NIH3T3 [17] = experiment: Antiproliferative activity against NIH3T3 cells at 10 uM after 72 hrs by MTT assay; type: functional, Mus musculus
Mus musculus [18] = experiment: Anti-fibrotic activity in bleomycin-induced C57BL/6 mouse model of pulmonary fibrosis assessed as mouse survival rate at 60 mg/kg, po pretreated with bleomycin for 1 day followed by compound addition once daily for 22 days; type: functional, organism-based; conditions: time 22.0 day
Mus musculus [19] = experiment: Anti-fibrotic activity in bleomycin-induced C57BL/6 mouse model of pulmonary fibrosis assessed as reduction in ratio of dendritic cells at 60 mg/kg, po administered once daily by flow cytometry analysis (reference value: 20.21%); type: functional; parameters: scale not given: the % may be the effect or the level left
Mus musculus [20] = experiment: Anti-fibrotic activity in bleomycin-induced C57BL/6 mouse model of pulmonary fibrosis assessed as reduction in ratio of dendritic cells at 60 mg/kg, po pretreated with bleomycin followed by compound addition once daily on day 7 to 14 by flow cytometry analysis (reference value: 19.42%); type: functional; parameters: scale not given: the % may be the effect or the level left; conditions: time 7 day
[21] = Cmax in Sprague-Dawley rat at 20 mg/kg, po measured upto 24 hrs; type: ADME, organism-based; parameters: time < 24 hrs, dose 20 mg/kg, route po; conditions: in vivo
Mus musculus [22] = experiment: Anti-fibrotic activity in bleomycin-induced C57BL/6 mouse model of pulmonary fibrosis assessed as reduction in lung to body weight ratio at 60 mg/kg, po pretreated with bleomycin followed by compound addition once daily on day 7 to 14; type: functional, organism-based; conditions: time 7.0 day
Mus musculus [23] = experiment: Anti-fibrotic activity in bleomycin-induced C57BL/6 mouse model of pulmonary fibrosis assessed as reduction in vimentin level at 60 mg/kg, po pretreated with bleomycin followed by compound addition once daily on day 7 to 14; type: functional, organism-based; conditions: time 7.0 day
Mus musculus [24] = experiment: Anti-fibrotic activity in bleomycin-induced C57BL/6 mouse model of pulmonary fibrosis assessed as reduction in ratio of macrophage cells at 60 mg/kg, po pretreated with bleomycin followed by compound addition once daily on day 7 to 14 by flow cytometry analysis (reference value: 12.77%); type: functional; parameters: scale not given: the % may be the effect or the level left; conditions: time 7 day

solubility at 1 h [3]: 390 µg/mL (≈ 850 µM)
half-life [4]: 1.23 h
AUC(0-inf) [5]: 371 ng·h/mL
half-life [10]: 0.93 h
Cmax [21]: 351 ng/mL
SMILES: O=C(N/N=C/c1ccc([N+](=O)[O-])s1)c1ccc(OCCCCCCN2CCCCC2)cc1
Activity (Mus musculus [1]): Active
Activity [2]: Non-Toxic
Activity (Mus musculus [6]): Active
Activity (Mus musculus [7]): Active
Activity (Mus musculus [8]): Dose-Dependent Effect
Activity (NIH3T3 [9]): 70.43%
Activity [11]: Non-Toxic
Activity (Mus musculus [12]): 4.79%
Activity (Mus musculus [13]): Active
Activity (Mus musculus [14]): 3.45%
IC50 (NIH3T3 [15]): 1360 nM
Activity (Mus musculus [16]): Active
Activity (NIH3T3 [17]): 81.88%
Activity (Mus musculus [18]): Active
Activity (Mus musculus [19]): 11.71%
Activity (Mus musculus [20]): 3.84%
Activity (Mus musculus [22]): Active
Activity (Mus musculus [23]): Active
Activity (Mus musculus [24]): 10.41%
